The supplement of paper PMC11451515

Test system: P12-Ichikawa
Experiment: cell viability relative to DMSO control; higher = less cytotoxic
Settings: 48 h
How it was run: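 Viability is expressed as a percentage of DMSO wells within each plate, and cell-free wells serve as background. Seeding densities in the 1536-well plates (5 μl) were 500 cells/well for NOMO1 or SEM leukemia cells and 1000 cells/well for P12-Ichikawa. Each line was adapted for at least four passages in each medium. Library compounds in DMSO were pin-dosed at 47 μM to 0.79 nM (11 points, threefold), and CellTiter-Glo One luminescence was read after 48 h at 37°C.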

[1] = HPLM + 10% dialyzed FBS, 0.000781 µM
[2] = HPLM + 10% dialyzed FBS, 0.00234 µM
[3] = HPLM + 10% dialyzed FBS, 0.00702 µM
[4] = HPLM + 10% dialyzed FBS, 0.0211 µM
[5] = HPLM + 10% dialyzed FBS, 0.0632 µM
[6] = HPLM + 10% dialyzed FBS, 0.19 µM
[7] = HPLM + 10% dialyzed FBS, 0.569 µM
[8] = HPLM + 10% dialyzed FBS, 1.71 µM
[9] = HPLM + 10% dialyzed FBS, 5.12 µM
[10] = HPLM + 10% dialyzed FBS, 15.4 µM
[11] = HPLM + 10% dialyzed FBS, 46.1 µM
[12] = RPMI 5 mM glucose + 10% FBS, 0.000781 µM
[13] = RPMI 5 mM glucose + 10% FBS, 0.00234 µM
[14] = RPMI 5 mM glucose + 10% FBS, 0.00702 µM
[15] = RPMI 5 mM glucose + 10% FBS, 0.0211 µM
[16] = RPMI 5 mM glucose + 10% FBS, 0.0632 µM
[17] = RPMI 5 mM glucose + 10% FBS, 0.19 µM
[18] = RPMI 5 mM glucose + 10% FBS, 0.569 µM
[19] = RPMI 5 mM glucose + 10% FBS, 1.71 µM
[20] = RPMI 5 mM glucose + 10% FBS, 5.12 µM
[21] = RPMI 5 mM glucose + 10% FBS, 15.4 µM
[22] = RPMI 5 mM glucose + 10% FBS, 46.1 µM
[23] = RPMI 5 mM glucose + 10% dialyzed FBS, 0.000781 µM
[24] = RPMI 5 mM glucose + 10% dialyzed FBS, 0.00234 µM
[25] = RPMI 5 mM glucose + 10% dialyzed FBS, 0.00702 µM
[26] = RPMI 5 mM glucose + 10% dialyzed FBS, 0.0211 µM
[27] = RPMI 5 mM glucose + 10% dialyzed FBS, 0.0632 µM
[28] = RPMI 5 mM glucose + 10% dialyzed FBS, 0.19 µM
[29] = RPMI 5 mM glucose + 10% dialyzed FBS, 0.569 µM
[30] = RPMI 5 mM glucose + 10% dialyzed FBS, 1.71 µM
[31] = RPMI 5 mM glucose + 10% dialyzed FBS, 5.12 µM
[32] = RPMI 5 mM glucose + 10% dialyzed FBS, 15.4 µM
[33] = RPMI 5 mM glucose + 10% dialyzed FBS, 46.1 µM

SMILES	cell viability [1] [%]	cell viability [2] [%]	cell viability [3] [%]	cell viability [4] [%]	cell viability [5] [%]	cell viability [6] [%]	cell viability [7] [%]	cell viability [8] [%]	cell viability [9] [%]	cell viability [10] [%]	cell viability [11] [%]	cell viability [12] [%]	cell viability [13] [%]	cell viability [14] [%]	cell viability [15] [%]	cell viability [16] [%]	cell viability [17] [%]	cell viability [18] [%]	cell viability [19] [%]	cell viability [20] [%]	cell viability [21] [%]	cell viability [22] [%]	cell viability [23] [%]	cell viability [24] [%]	cell viability [25] [%]	cell viability [26] [%]	cell viability [27] [%]	cell viability [28] [%]	cell viability [29] [%]	cell viability [30] [%]	cell viability [31] [%]	cell viability [32] [%]	cell viability [33] [%]
Nc1ccccc1NC(=O)c1ccc(CNC(=O)OCc2cccnc2)cc1	111	118	110	113	105	107	98.4	73.4	20	5.58	4.41	106	112	108	122	108	102	113	71.6	27.8	4.9	3.42	109	111	108	113	114	113	99.6	69.1	21.4	5.4	3.96
CC(C)[C@@H](N(CCCN)C(=O)C1=CC=C(C)C=C1)C/2=N/C3=CC(=CC=C3C(=O)N2CC4=CC=CC=C4)Cl	97.6	12	10.4	8.9	8.1	8.2	5.86	7.66	5.88	7.47	8.59	96.2	12.6	10.8	11.7	9.51	12	8.85	8.68	7.23	7.78	7.67	88.8	48.5	18.6	14.5	12.8	13.4	11.1	14.6	11.3	11.3	10.9
CO[C@H]1/C=C/O[C@@]2(C)Oc3c(C)c(O)c4c(O)c(c5c(nc6cc(C)ccn65)c4c3C2=O)NC(=O)/C(C)=C\C=C\[C@H](C)[C@H](O)[C@@H](C)[C@@H](O)[C@@H](C)[C@H](OC(C)=O)[C@@H]1C	108	98.3	107	106	107	106	104	102	50.2	89.4	9.34	103	103	113	102	114	101	94.1	103	46.5	72.8	35.1	105	100	101	99.9	101	97.7	102	92.9	41.8	77.3	33.7
COc1c(C)cnc(Cn2cnc3c(Cl)nc(N)nc32)c1C	109	114	106	125	118	104	85.1	67.9	55.1	50.2	50.5	116	123	125	125	124	94.1	61.6	50.5	48	40.9	38.1	110	121	119	116	115	99.8	58.3	47.8	45.1	40.9	37.9
CC/1=C/C(=O)N(O)/C(=C1)C2CCCCC2	115	118	123	132	130	125	121	127	113	74.8	28.5																						
[NH2][Pt]1([NH2])[O]CC(=O)[O]1	93.6	98.4	101	95.7	105	102	102	101	105	103	105	98.5	88.3	96.9	99.5	104	99.2	102	88.5	92.4	95.2	102	86.2	93	96.4	89.4	92.1	89.9	97.8	89.6	91.1	92.4	93.8
